{"source": "ChEMBL document CHEMBL5584348", "about": "“Exploring Degradation of Intrinsically Disordered Protein Yes-Associated Protein Induced by Proteolysis TArgeting Chimeras” (J Med Chem, 2024)", "key": {"[1]": {"test": "Toxicity in immunodeficient male NSG mouse xenografted with human Huh-7 cells assessed as change in ALT level in liver at 35 mg/kg, ip administered every 3 days for 24 days", "format": "organism-based", "conditions": "in vivo, 576 h, time 24 day"}, "[2]": {"target": "T1, von Hippel-Lindau disease tumor suppressor/Transcriptional coactivator YAP1 (Homo sapiens, UniProt P40337+P46937)", "test": "PROTAC activity at YAP/VHL in human NCI-H226 cells assessed as induction of YAP degradation incubated for 48 hrs by Western blot analysis", "format": "cell-based"}, "Huh-7 [3]": {"tested_on": "Huh-7", "test": "Antitumor activity against human Huh-7 cells xenografted in immunodeficient male NSG mouse assessed as tumor growth inhibition at 35 mg/kg, ip administered every 3 days for 24 days in presence of sorafenib", "format": "functional", "conditions": "Huh-7, 576 h, time 24 day, read-out: TGI"}, "[4]": {"target": "T1, von Hippel-Lindau disease tumor suppressor/Transcriptional coactivator YAP1", "test": "PROTAC activity at YAP/VHL in human NCI-H226 cells assessed as induction of YAP degradation at 2.5 to 20 uM incubated for 48 hrs by Western blot analysis relative to control", "format": "cell-based", "conditions": "dose 2.5-20 µM"}, "[5]": {"target": "T1, von Hippel-Lindau disease tumor suppressor/Transcriptional coactivator YAP1", "test": "PROTAC activity at YAP/VHL in human Huh-7 cells assessed as induction of YAP degradation incubated for 48 hrs by Western blot analysis", "format": "cell-based"}, "[6]": {"test": "Toxicity in immunodeficient male NSG mouse xenografted with human Huh-7 cells assessed as morphological abnormalities in liver at 35 mg/kg, ip administered every 3 days for 24 days by H and E staining based analysis", "format": "organism-based", "conditions": "in vivo, 576 h, time 24 day"}, "[7]": {"target": "T2, von Hippel-Lindau disease tumor suppressor/WW domain-containing transcription regulator protein 1 (Homo sapiens) (UniProt P40337+Q9GZV5)", "T2 sequence (P40337 whole entry, looked up, the tested form may be a part)": "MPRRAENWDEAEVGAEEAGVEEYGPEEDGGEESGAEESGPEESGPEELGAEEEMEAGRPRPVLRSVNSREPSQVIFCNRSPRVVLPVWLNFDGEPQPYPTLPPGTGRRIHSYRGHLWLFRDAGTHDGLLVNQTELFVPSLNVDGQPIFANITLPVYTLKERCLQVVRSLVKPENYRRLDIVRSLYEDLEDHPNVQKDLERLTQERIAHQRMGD", "T2 sequence (Q9GZV5 whole entry, looked up, the tested form may be a part)": "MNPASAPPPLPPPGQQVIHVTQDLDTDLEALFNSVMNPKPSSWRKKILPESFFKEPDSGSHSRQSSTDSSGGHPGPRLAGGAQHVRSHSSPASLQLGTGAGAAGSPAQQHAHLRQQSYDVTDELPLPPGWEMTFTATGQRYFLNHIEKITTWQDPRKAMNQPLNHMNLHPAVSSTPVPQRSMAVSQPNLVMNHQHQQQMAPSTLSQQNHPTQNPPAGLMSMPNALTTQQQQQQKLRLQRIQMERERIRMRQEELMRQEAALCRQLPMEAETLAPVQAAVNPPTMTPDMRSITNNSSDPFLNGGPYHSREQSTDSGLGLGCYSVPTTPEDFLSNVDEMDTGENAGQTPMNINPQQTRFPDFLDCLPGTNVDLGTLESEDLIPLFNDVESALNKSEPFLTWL", "test": "PROTAC activity at TAZ/VHL in human Huh-7 cells assessed as reduction in TAZ expression incubated for 24 hrs by Western blot analysis", "format": "cell-based", "conditions": "dose 5-20 µM"}, "[8]": {"target": "T1, von Hippel-Lindau disease tumor suppressor/Transcriptional coactivator YAP1", "test": "PROTAC activity at YAP/VHL in human NCI-H226 cells assessed as reduction in YAP level at 10 uM incubated for 48 hrs by Western blot analysis relative to control", "format": "cell-based", "set-up": "scale not given: the % may be the effect or the level left"}, "[9]": {"test": "Tmax in Sprague-Dawley rat at 35 mg/kg, ip measured upto 24 hrs by LC-MS/MS analysis", "format": "ADME, organism-based", "conditions": "in vivo"}, "[10]": {"target": "T2, von Hippel-Lindau disease tumor suppressor/WW domain-containing transcription regulator protein 1 (Homo sapiens)", "test": "PROTAC activity at TAZ/VHL in human Huh-7 cells assessed as induction of TAZ degradation at 5 to 20 uM incubated for 24 hrs by Western blot analysis", "format": "cell-based", "conditions": "dose 5-20 µM"}, "Huh-7 [11]": {"tested_on": "Huh-7", "test": "Antitumor activity against human Huh-7 cells xenografted in immunodeficient male NSG mouse assessed as tumor growth inhibition at 35 mg/kg, ip administered every 3 days for 24 days", "format": "functional", "conditions": "Huh-7, 576 h, time 24 day, read-out: TGI"}, "Huh-7 [12]": {"tested_on": "Huh-7", "test": "Antiproliferative activity against human Huh-7 cells overexpressing YAP assessed as cell growth inhibition incubated for 4 days by CCK-8 assay", "format": "functional, cell-based", "conditions": "Huh-7, 96 h"}, "[13]": {"test": "Cmax in Sprague-Dawley rat at 35 mg/kg, ip measured upto 24 hrs by LC-MS/MS analysis", "format": "ADME, organism-based", "conditions": "in vivo"}, "NCI-H2452": {"tested_on": "NCI-H2452", "test": "Antiproliferative activity against human NCI-H2452 cells expressing NF2 assessed as reduction in cell viability incubated for 4 days by CCK-8 assay", "format": "functional, cell-based", "conditions": "time 4.0 day"}, "[14]": {"test": "Toxicity in immunodeficient male NSG mouse xenografted with human Huh-7 cells assessed as change in body weight at 35 mg/kg, ip administered every 3 days for 24 days", "format": "organism-based", "conditions": "in vivo, 576 h, time 24 day"}, "[15]": {"target": "T1, von Hippel-Lindau disease tumor suppressor/Transcriptional coactivator YAP1", "test": "PROTAC activity at YAP/VHL in human NCI-H226 cells assessed as reduction in CTGF expression incubated for 48 hrs by Western blot analysis", "format": "cell-based", "conditions": "dose 2.5-20 µM"}, "[16]": {"test": "AUClast in Sprague-Dawley rat at 35 mg/kg, ip measured upto 24 hrs by LC-MS/MS analysis", "format": "ADME, organism-based", "conditions": "in vivo"}}, "note": "The source made the active and inactive calls. The rule behind the calls is not given here.", "data": [{"compound": "COc1cc(-c2cc(-c3ccccc3)nc3c2CC(=O)Nc2ccccc2-3)ccc1OCCOCCOCCC(=O)N[C@H](C(=O)N1C[C@H](O)C[C@H]1C(=O)N[C@@H](C)c1ccc(-c2scnc2C)cc1)C(C)(C)C", "values": [{"measurement": "Activity", "setting": "[1]", "result": "Non-Toxic"}, {"measurement": "DC50", "setting": "[2]", "result": 8.2, "unit": "µM"}, {"measurement": "inhibition in vivo at 35 mg/kg", "setting": "Huh-7 [3]", "result": 93, "unit": "%"}, {"measurement": "Emax", "setting": "[4]", "result": 97, "unit": "%"}, {"measurement": "DC50", "setting": "[5]", "result": 4.3, "unit": "µM"}, {"measurement": "Activity", "setting": "[6]", "result": "Non-Toxic"}, {"measurement": "Activity", "setting": "[7]", "result": "Dose-Dependent Effect"}, {"measurement": "Activity", "setting": "[8]", "result": 80, "unit": "%"}, {"measurement": "Tmax", "setting": "[9]", "result": 3.33, "unit": "h"}, {"measurement": "Activity", "setting": "[10]", "result": "Active"}, {"measurement": "inhibition in vivo at 35 mg/kg", "setting": "Huh-7 [11]", "result": 82, "unit": "%"}, {"measurement": "IC50", "setting": "Huh-7 [12]", "result": 2.9, "unit": "µM"}, {"measurement": "Cmax", "setting": "[13]", "result": 193, "unit": "ng/mL"}, {"measurement": "Activity", "setting": "NCI-H2452", "result": "inactive"}, {"measurement": "Activity", "setting": "[14]", "result": "Non-Toxic"}, {"measurement": "Activity", "setting": "[15]", "result": "Dose-Dependent Effect"}, {"measurement": "AUC(0-t) at 24 h", "setting": "[16]", "result": 1940, "unit": "ng·h/mL"}]}]}
